From PMC3313936 (PLoS ONE, 2012)
Where two headings read alike, the source gives them in different places.

Tests used:
CBM32-5 [1] = target: T1, CBM32-5 (Clostridium perfringens, UniProt A0A0H2YU91); settings: co-crystallised with 10 mM ligand, pH 5.6
T1 construct: gene CPF_0859

CBM32-5 [2] = target: T1, CBM32-5; settings: 20 mM Tris-HCl pH 8.0; 20 °C (table; methods say 25 °C)
CBM32-5 [3] = target: T1, CBM32-5; settings: 20 mM Tris-HCl pH 8.0; 20 °C (table; methods say 25 °C); n fixed at 1
CBM32-5 [4] = target: T1, CBM32-5; settings: glycan immobilised on array; labelled protein
CBM32-4 = target: T2, CBM32-4 (Clostridium perfringens, UniProt A0A0H2YU91); settings: 50 mM HEPES pH 7.5, 25 °C; one-site fit, n fixed at 1
T2 construct: gene CPF_0859

CBM32-3 = target: T3, CBM32-3 (Clostridium perfringens, UniProt A0A0H2YU91); settings: 50 mM HEPES pH 7.5, 25 °C; one-site fit, n fixed at 1
T3 construct: gene CPF_0859

For `CC(=O)N[C@H]1[C@@H](OC[C@H](N)C(=O)O)O[C@H](CO)[C@H](O)[C@@H]1O` [Tn antigen, N-acetyl-α-D-galactosaminyl-1-O-serine], the “X-ray crystal structure of complex, 1.70 Å” value (CBM32-5 [1]) was 4a44 for CBM32-5 in complex with the Tn Antigen.

With `CC(=O)N[C@H]1C(O)O[C@H](CO)[C@H](O)[C@@H]1O[C@@H]1O[C@H](CO)[C@H](O)[C@H](O)[C@H]1O` (stereo partly drawn) [Gal-β-1,3-GalNAc] the “Ka (M^-1)” value (CBM32-5 [2]) was 3.77 (±0.34)×10^3.

`OC[C@H]1OC(O)[C@H](O)[C@@H](O)[C@H]1O` (stereo partly drawn) [D-galactose] was tested, and the “Ka (M^-1)” value (CBM32-5 [2]) was 1.69 (±0.05)×10^3.

With `CC(=O)N[C@H]1C(O)O[C@H](CO)[C@H](O)[C@@H]1O` (stereo partly drawn) [D-GalNAc] the “Ka (M^-1)” value (CBM32-5 [2]) was 5.01 (±0.64)×10^3.

For `CC(=O)N[C@H]1[C@H](O[C@H]2[C@@H](O)[C@@H](CO)OC(O)[C@@H]2O)O[C@H](CO)[C@H](O)[C@@H]1O` (stereo partly drawn) [GalNAc-β-1,3-Gal], the “Ka (M^-1)” value (CBM32-5 [3]) was 3.40 (±0.10)×10^3.

With `OC[C@H]1O[C@@H](O[C@H]2[C@H](O)[C@@H](O)C(O)O[C@@H]2CO)[C@H](O)[C@@H](O)[C@H]1O` (stereo partly drawn) [Lactose] the “Ka (M^-1)” value (CBM32-5 [2]) was 2.40 (±0.58)×10^3.

`CC(=O)N[C@H]1[C@@H](O[C@@H]2[C@H](O)[C@@H](O[C@@H]3O[C@@H](C)[C@@H](O)[C@@H](O)[C@@H]3O)[C@H](O[C@H]3[C@H](O)[C@@H](NC(C)=O)C(O)O[C@@H]3CO)O[C@@H]2CO)O[C@H](CO)[C@H](O)[C@@H]1O` (stereo partly drawn) [GalNAc-α-1,4(Fuc-α-1,2)-Gal-β-1,4-GlcNAc] was tested, and the glycan microarray (CBM32-5 [4]) was “this synthetic carbohydrate was clearly the top ligand from the array analysis”.

In the case of `CC(=O)N[C@H]1[C@@H](O[C@@H]2[C@H](O)[C@@H](O)C(O)O[C@@H]2CO)O[C@H](CO)[C@@H](O)[C@@H]1O` (stereo partly drawn) [GlcNAc-α-1,4-Gal], the association constant (CBM32-4) is reported as 1.38 (±0.08)×10^4 and the association constant (CBM32-3) is reported as 2.64 (±0.64)×10^4.
